Laboratory results: PubChem BioAssay (NCI)
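Values below derive from 48-hour exposures of cells grown in 96-well plates, with endpoints linearly interpolated between the two concentrations bracketing the appropriate inhibition level. GI50 is the concentration that inhibits growth by half. TGI: concentration producing complete growth inhibition.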

Tests used:
Experiment in all cases: NCI-60 cell line screen, 48 h
[1] = test system: U251 CNS
[2] = test system: SNB-75 CNS
[3] = test system: EKVX NSCLC
[4] = test system: KM12 colon
[5] = test system: BT-549 breast
[6] = test system: SK-MEL-5 melanoma
[7] = test system: COLO 205 colon
[8] = test system: OVCAR-8 ovarian
[9] = test system: K-562 leukemia
[10] = test system: A498 renal

SMILES | TGI [1] [µM] | TGI [2] [µM] | TGI [3] [µM] | TGI [4] [µM] | TGI [5] [µM] | TGI [6] [µM] | TGI [7] [µM] | TGI [8] [µM] | TGI [9] [µM] | TGI [10] [µM] | GI50 [5] [µM]
COC1C(O)CC(OC2C(C)OC(Oc3cc(O)c4c(O)c5c(cc4c3)C[C@@H]([C@H](OC)C(=O)[C@@H](O)[C@@H](C)O)[C@H](OC3CC(OC4CC(OC6CC(C)(O)C(O)C(C)O6)C(O)C(C)O4)C(O)C(C)O3)C5=O)CC2OC(C)=O)OC1C (stereo not given in full) | > 100 | > 100 | > 100 | > 100 | > 100 | > 100 | > 100 | > 100 | > 100 | > 100 | 
CN1CC2=C(OC(N)=C(C#N)C2c2cccs2)/C(=C/c2cccs2)C1 (stereo not given) | > 100 |  | > 60.2 | > 78.9 | > 100 | 14.4 | > 100 | > 67.7 | > 100 | > 100 | 
CCN(CC)Cc1nc2sc3c(c2c(=O)n1-c1ccccc1)CCCC3 | 31.3 | 47.4 | 79.9 | > 100 | 53.6 | 31.7 | 43.6 | 32.7 | > 100 | 45.2 | 
COc1ccc2c(c1)O[C@@H]1C(O)Oc3cc(OC)c(OC)cc3[C@]1(O)C2=O (stereo not given in full) | > 100 | > 100 | > 100 | > 100 | 91 | 72.4 | > 100 | > 100 | > 100 | > 100 | 
COc1ccc2nc3cc(Cl)ccc3c(NCCCCCC(=O)NC(COc3cnc4c(ccc5cccnc54)c3)COc3cnc4c(ccc5cccnc54)c3)c2c1 | 21.8 | 4.78 | > 100 | > 100 | 24.1 |  | 10.7 | > 100 | 13.6 | 62.8 | 
CC(=O)NNc1nc(C)c(C(/C=C/c2ccc3c(c2)OCO3)=N/Nc2ccccc2)s1 | > 100 | > 100 | > 100 | > 100 | > 100 | > 100 | > 100 | > 100 | > 100 | > 100 | 
CCC(C)[C@H](NC(=O)N[C@H](C)c1ccccc1)C(=O)OC (stereo not given in full) | > 100 | > 100 | > 100 | > 100 | > 100 | > 100 | > 100 | > 100 | > 100 | > 100 | 
CCNC(=O)Nc1cccc(C)n1 | > 100 | > 100 | > 100 | > 100 | > 100 | > 100 | > 100 | > 100 | > 100 | > 100 | 
CCC(CCCN)Nc1cc(OC)cc2cccnc12 (stereo not given) |  | > 100 | > 100 | > 100 | > 100 | > 100 | > 100 | > 100 | > 100 | > 100 | 
S=C1c2ccccc2NC(=NC2CCCC2)C2CSCN12 (stereo not given) | > 100 |  | > 100 | > 100 | > 100 | > 100 | > 100 | > 100 | > 100 | > 100 | 
CC(C)/C(Cl)=N/OC(=O)Nc1ccc(F)c(Cl)c1 | 40.3 | 32 | 5.17 | 30.6 | 9.98 | 28.2 | 3.25 | 32.4 | > 100 | 33.3 | 
c1ccc2c(-c3cnc(-c4c[nH]c5ccccc45)cn3)c[nH]c2c1 | > 100 | 94.4 | > 100 | > 100 | > 100 | > 100 | > 100 | > 100 | > 100 | > 100 | 
Brc1ccc(N=NN2CCCCC2)cc1 | > 100 | > 100 | > 100 | > 100 | > 100 | > 100 | > 100 | > 100 | > 100 | > 100 | 
CC(=O)NCCCCNCCCNC(C)=O | > 100 | > 100 | > 100 | > 100 | > 100 | > 100 | > 100 | > 100 | > 100 | > 100 | 
Cn1ccnc1S/C(=C\C=C(C#N)C#N)c1ccc(Cl)cc1 | 6.85 | 12.5 | 13.1 | 6.22 | > 28.7 | 3.59 | > 35.6 | 3.57 | 3.41 | 3.16 | 5.14
CC(=O)O/C=C\OC1CCCC1(c1ccccc1)c1ccccc1 (stereo not given) | 11.6 | 11.5 | 20.7 | 12.9 | 4.66 | 7.19 | 13.8 | 7.3 | 9.05 | 32.9 | 
C=CC(=O)N1C/C(=C\c2ccc(N(C)C)cc2)C(=O)/C(=C/c2ccc(N(C)C)cc2)C1 | > 100 | > 100 | > 100 | > 100 | > 100 | > 100 | > 100 | > 100 | > 100 | > 100 | 
CC(C)Oc1c(-c2c(OC(C)C)c(=O)c2=O)c(=O)c1=O | > 59.9 | > 71.2 | > 64.9 | > 59.6 | > 61.3 | > 61.8 | > 51.9 | > 71.9 | > 54.7 | > 100 | 
O=C(NCCN(CCNC(=O)c1cccc(=O)n1O)CCN(CCNC(=O)c1cccc(=O)n1O)CCNC(=O)c1cccc(=O)n1O)c1cccc(=O)n1O | > 100 | > 100 |  | > 100 | > 100 | > 100 | > 100 | > 100 | > 100 | > 100 | 
CSc1nc(NC2CCCC2)c2cc[nH]c2n1 | > 100 |  | > 100 | > 100 | > 100 | 96.6 | > 100 | > 100 | > 100 | 80.3 | 
COc1cccc(N2C(=O)C3c4[nH]c5ccccc5c4C4c5ccccc5CCC4C3C2=O)c1 (stereo not given) | > 8.12 | 6.3 | > 10 | > 10 | > 10 | > 10 | > 10 | 9.9 | > 10 | 8.53 | 
